Assays:
total ATXN3 protein = assay: ATXN3 total protein assay (MSD, SK-N-MC cells); type: cell-based, Human; conditions: 48 hours incubation, read-out: ATXN3 Potency - Protein IC50
Method in brief: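 SK-N-MC human neuroblastoma cells treated with compound (30 μM to 0.6 nM) for 48 h, then lysed with protease inhibitors. Total ATXN3 measured by MSD sandwich immunoassay (mouse capture, rabbit detection antibodies, anti-rabbit MSD-ST secondary), quantified against recombinant ATXN3 standards.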

[1] = tested on: ATXN3 transcripts containing exon 4 (E4E5); assay: ATXN3 quantitative splicing assay (qPCR, SK-N-MC cells); type: cell-based; conditions: Homo sapiens, 24 h treatment, qPCR E4E5 primers/probe, read-out: ATXN3 Potency - Splicing E4E5 IC50
Method in brief: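 SK-N-MC cells treated 24 h with compound (30 μM to 0.6 nM, 0.3% DMSO) 24 h after plating; lysates reverse-transcribed and analysed by TaqMan qPCR. E4E5 primers/probe detect exon 4–containing transcripts; E8E9 measures total ATXN3, alongside exon 4–skipped transcript detection.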

| SMILES | IC50 (total ATXN3 protein) [nM] | IC50 [1] [nM] |
| --- | --- | --- |
| Cc1c(CC(N)CF)sc2c(NCc3cccs3)cnnc12 (stereo not shown) [Compound 141, 6-(2-amino-3-fluoropropyl)-7-methyl-N-[(thiophen-2-yl)methyl]thieno[3,2-c]pyridazin-4-amine] | 501 to 5000 | 501 to 5000 |
| C#CC[C@H](N)Cc1sc2c(NCc3cccs3)cnnc2c1C [Compound 142, 6-[(2S)-2-aminopent-4-yn-1-yl]-7-methyl-N-(thiophen-2-ylmethyl)thieno[3,2-c]pyridazin-4-amine] | 501 to 5000 | 501 to 5000 |

Source: patent US20250101034A1, “COMPOSITIONS USEFUL FOR MODULATING SPLICING” (SKYHAWK THERAPEUTICS, INC., priority 2021, published 2025)
